Laboratory results: PubChem BioAssay AID2060896 (Molecular Pharmacology Branch, DTP, NCI, 2025)

Test system: 941728-121-R-J1-PDC complex spheroid viability
Assay: Anticancer human tumor 941728-121-R-J1-PDC patient-derived lung adenocarcinoma cell line growth inhibition [RAS]
Conditions: for IC50: curve of first compound; for viability, T/C: stronger effect = lower value
Text: RAS pathway inhibitors in Combinations in Complex Spheroids
A high-throughput screen of multi-cell type tumor spheroids was designed to identify active combinations of RAS pathway inhibitors and targeted small molecules. Complex spheroids include a stromal component modeled by human endothelial cells (HUVEC) and fibroblasts modeled by human mesenchymal stem cells (MSCs). The concentration ranges selected for each drug and investigational agent were based upon clinically achievable concentrations if the clinical Cmax of the agent was known.
Compounds. The drugs and investigational agents: abemaciclib (NSC768073), cobimetinib (NSC768068), divarasib (GDC6063, NSC841802), docetaxel (NSC628503), GDC-1971 (RLY-1971, NSC841576), gemcitabine (NSC613327), inavolisib (NSC800729), ipatasertib (NSC767898), KB-0742 (NSC834161), MRTX-1133 (NSC836407), osimertinib (NSC779217), RMC-4630 (NSC839698), RMC-6236 (NSC851965), RMC-6291 (NSC852671), Ro-3306 (NSC812927), sapanisertib (NSC764658), SN-38 (NSC673596), staurosporine (NSC755774), SY5609 (NSC837396), and tovorafenib (DAY101, NSC766906), were obtained from the National Cancer Institute (NCI) Developmental Therapeutics Program Chemical Repository. The FDA-approved anticancer drug set is available from the NCI Developmental Therapeutics Program. […] The stock solutions were prepared in dimethyl sulfoxide (DMSO, Sigma-Aldrich, St. Louis, MO, cat. D2650) at 800-fold the tested concentration and stored at -70 degrees C prior to their use. All drugs and investigational agents were tested over a range starting from a high concentration at or near the clinical Cmax and decreasing in half-log increments. If the clinical Cmax for an agent had not been determined, the highest concentration tested was 10 microM.
Cell Culture. All cells were maintained in an incubator at 37 degrees C and 5% CO2 with 95% humidity. The PDC lines were cultured according to standard operating procedures established by the NCI PDMR. All PDCs were thawed and cultured in Matrigel-coated flasks prepared with a working solution of 1X Ham's F-12 nutrient mix, without supplementation (Invitrogen, Waltham, MA, cat. 11765054), 100 U/mL penicillin-streptomycin (Invitrogen, cat. 15140122), and 2.5% Matrigel (Corning Inc., Corning, NY, cat. 354248) for the first three passages. The 362531-283-R-J2-PDC and 782815-120-R-J1-PDC lines were cultured in 6C/Colon 1B media, which includes advanced DMEM/F-12 (Thermo Fisher Scientific, cat. 12634028), 10 mM HEPES (Thermo Fisher Scientific, cat. 15630080), 1X GlutaMAX supplement (Thermo Fisher Scientific, cat. 35050061), 0.1 mg/mL primocin (InvivoGen, San Diego, CA, cat. ant-pm-2), 10% defined fetal bovine serum, heat inactivated (HyClone Laboratories Inc., Logan, UT, cat. SH30070.03HI), 50% L-WRN conditioned media (ATCC, cat. CRL-3276), 1.25 mM N-Acetyl-L-cysteine (Sigma-Aldrich, cat. A9165), 10 mM nicotinamide (Sigma-Aldrich, cat. N0636), 1X B-27 supplement (Thermo Fisher Scientific, cat. 17504044), 1X N-2 supplement (Thermo Fisher Scientific, cat. 17502048), 50 ng/mL human EGF (Thermo Fisher Scientific, cat. PHG0311), and 10 microM Y-27632 dihydrochloride (Tocris Bioscience, cat. 1254). The K12877-001-R-J1-PDC line was cultured in 6I media, which includes all 6C/Colon 1B media plus 10 ng/mL human FGF-10 (PeproTech, cat. 100-26), 1 ng/mL human FGF-2 (PeproTech, cat. 100-18B), 1 µM prostaglandin E2 (Tocris Bioscience, cat. 2296), […] hydrocortisone (Sigma-Aldrich, cat. H4001), and […] bovine insulin (Sigma-Aldrich, cat. I6634). The K86415-001-R-J1-PDC line was cultured in 6D media, which includes all 6C/Colon 1B media components minus the L-WRN conditioned media. The 485176-168-R4-J1-PDC was cultured in PANC media, which includes all 6C/Colon 1B media plus 100 ng/mL human FGF-10 (PeproTech, cat. 100-26), 500 nM SB-431542 (Selleckchem, cat. S1067), and 10 nM gastrin (Tocris Bioscience, cat. 3006). […]

[1] = second compound 0.0316 µM, first compound 0.0316 µM
[2] = second compound 0.0316 µM, first compound 0.1 µM
[3] = second compound 0.1 µM, first compound 0.0316 µM
[4] = second compound 0.1 µM, first compound 0.1 µM
[5] = second compound 0.316 µM, first compound 0.0316 µM
[6] = second compound 0.316 µM, first compound 0.1 µM
[7] = second compound 1 µM, first compound 0.0316 µM
[8] = second compound 1 µM, first compound 0.1 µM
[9] = second compound 3.16 µM, first compound 0.0316 µM
[10] = second compound 3.16 µM, first compound 0.1 µM
[11] = second compound 10 µM, first compound 0.0316 µM
[12] = second compound 10 µM, first compound 0.1 µM
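Further: spheroids exposed to compounds for 7 days before readout.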
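Wherever viability, T/C is given: 100% = DMSO vehicle control viability.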

SMILES: CC(C)n1nc(-c2ccc3oc(N)nc3c2)c2c(N)ncnc21 + C#Cc1c(F)ccc2cc(O)cc(-c3ncc4c(N5CC6CCC(C5)N6)nc(OCC56CCCN5CC(F)C6)nc4c3F)c12
- IC50 (second compound 0.0316 µM): 3.97 nM
- IC50 (second compound 0.1 µM): 2.76 nM
- IC50 (second compound 0.316 µM): 1.26 nM
- IC50 (second compound 1 µM): < 0.316 nM
- IC50 (second compound 3.16 µM): < 0.316 nM
- IC50 (second compound 10 µM): < 0.316 nM
- viability, T/C (second compound 0.0316 µM, first compound 0.000316 µM): 78.9%
- viability, T/C (second compound 0.0316 µM, first compound 0.001 µM): 70.5%
- viability, T/C (second compound 0.0316 µM, first compound 0.00316 µM): 51%
- viability, T/C (second compound 0.0316 µM, first compound 0.01 µM): 39.2%
- viability, T/C [1]: 31.6%
- viability, T/C [2]: 26.3%
- viability, T/C (second compound 0.1 µM, first compound 0.000316 µM): 68.5%
- viability, T/C (second compound 0.1 µM, first compound 0.001 µM): 68.6%
- viability, T/C (second compound 0.1 µM, first compound 0.00316 µM): 46.3%
- viability, T/C (second compound 0.1 µM, first compound 0.01 µM): 33.9%
- viability, T/C [3]: 27.8%
- viability, T/C [4]: 26.6%
- viability, T/C (second compound 0.316 µM, first compound 0.000316 µM): 60.8%
- viability, T/C (second compound 0.316 µM, first compound 0.001 µM): 51.7%
- viability, T/C (second compound 0.316 µM, first compound 0.00316 µM): 42%
- viability, T/C (second compound 0.316 µM, first compound 0.01 µM): 34.5%
- viability, T/C [5]: 26.7%
- viability, T/C [6]: 26.3%
- viability, T/C (second compound 1 µM, first compound 0.000316 µM): 33.6%
- viability, T/C (second compound 1 µM, first compound 0.001 µM): 35.9%
- viability, T/C (second compound 1 µM, first compound 0.00316 µM): 31.3%
- viability, T/C (second compound 1 µM, first compound 0.01 µM): 23.7%
- viability, T/C [7]: 21.1%
- viability, T/C [8]: 18.8%
- viability, T/C (second compound 3.16 µM, first compound 0.000316 µM): 29.4%
- viability, T/C (second compound 3.16 µM, first compound 0.001 µM): 30.4%
- viability, T/C (second compound 3.16 µM, first compound 0.00316 µM): 25.9%
- viability, T/C (second compound 3.16 µM, first compound 0.01 µM): 20.2%
- viability, T/C [9]: 18.4%
- viability, T/C [10]: 15.9%
- viability, T/C (second compound 10 µM, first compound 0.000316 µM): 24.1%
- viability, T/C (second compound 10 µM, first compound 0.001 µM): 22.3%
- viability, T/C (second compound 10 µM, first compound 0.00316 µM): 20%
- viability, T/C (second compound 10 µM, first compound 0.01 µM): 15.9%
- viability, T/C [11]: 11.5%
- viability, T/C [12]: 9.78%

SMILES: CC(Nc1ccc2c(c1)OCCn1cc(N3C(=O)OCC3C(F)F)nc1-2)C(N)=O (centres undefined) + C#Cc1c(F)ccc2cc(O)cc(-c3ncc4c(N5CC6CCC(C5)N6)nc(OCC56CCCN5CC(F)C6)nc4c3F)c12
- IC50 (second compound 0.0316 µM): 75.7 nM
- IC50 (second compound 0.1 µM): 49.4 nM
- IC50 (second compound 0.316 µM): < 31.6 nM
- IC50 (second compound 1 µM): < 31.6 nM
- IC50 (second compound 3.16 µM): < 31.6 nM
- IC50 (second compound 10 µM): < 31.6 nM
- viability, T/C [1]: 64.5%
- viability, T/C [2]: 44.4%
- viability, T/C (second compound 0.0316 µM, first compound 0.316 µM): 37%
- viability, T/C (second compound 0.0316 µM, first compound 1 µM): 35.9%
- viability, T/C (second compound 0.0316 µM, first compound 3.16 µM): 29%
- viability, T/C (second compound 0.0316 µM, first compound 10 µM): 29.6%
- viability, T/C [3]: 56.9%
- viability, T/C [4]: 39.5%
- viability, T/C (second compound 0.1 µM, first compound 0.316 µM): 33.2%
- viability, T/C (second compound 0.1 µM, first compound 1 µM): 28.1%
- viability, T/C (second compound 0.1 µM, first compound 3.16 µM): 31.3%
- viability, T/C (second compound 0.1 µM, first compound 10 µM): 32.5%
- viability, T/C [5]: 40.3%
- viability, T/C [6]: 38.1%
- viability, T/C (second compound 0.316 µM, first compound 0.316 µM): 33.4%
- viability, T/C (second compound 0.316 µM, first compound 1 µM): 29.9%
- viability, T/C (second compound 0.316 µM, first compound 3.16 µM): 30.4%
- viability, T/C (second compound 0.316 µM, first compound 10 µM): 23.1%
- viability, T/C [7]: 33.8%
- viability, T/C [8]: 29.8%
- viability, T/C (second compound 1 µM, first compound 0.316 µM): 27.6%
- viability, T/C (second compound 1 µM, first compound 1 µM): 27.8%
- viability, T/C (second compound 1 µM, first compound 3.16 µM): 27.4%
- viability, T/C (second compound 1 µM, first compound 10 µM): 25.9%
- viability, T/C [9]: 28.3%
- viability, T/C [10]: 28.4%
- viability, T/C (second compound 3.16 µM, first compound 0.316 µM): 28%
- viability, T/C (second compound 3.16 µM, first compound 1 µM): 23.4%
- viability, T/C (second compound 3.16 µM, first compound 3.16 µM): 26.2%
- viability, T/C (second compound 3.16 µM, first compound 10 µM): 23.2%
- viability, T/C [11]: 22.8%
- viability, T/C [12]: 21.2%
- viability, T/C (second compound 10 µM, first compound 0.316 µM): 19.5%
- viability, T/C (second compound 10 µM, first compound 1 µM): 18.5%
- viability, T/C (second compound 10 µM, first compound 3.16 µM): 17.4%
- viability, T/C (second compound 10 µM, first compound 10 µM): 15.4%
